The text below walks through data of patent US20240208972A1, “LRRK2 INHIBITORS AND USES THEREOF” (NEURON23, INC., priority 2022, published 2024).

Series [1] can be described thus: Brain penetration (Kp,uu) in CD-1 mice, with plasma and brain tissue binding by equilibrium dialysis. The format is in vivo. The settings on record: mouse, brain and plasma (unbound), male CD-1 mice, single IV bolus 1 mg/kg. As for the experimental part: The compounds disclosed herein were tested on CD-1 mice for brain penetration (Kp, uu) according to the following procedures.
Nine male CD-1 mice were administered TEST COMPOUND by single intravenous bolus administration at 1 mg/kg. The vehicle used for IV study was 5% DMSO, 5% solutol, 20% PEG300 and 70% water. The detailed dosing and sampling regimens are described in the following tables.
1.0 mg of test compound was accurately weighed into a glass vial, and slowly added with 104 μL of DMSO and vortexed for 1 min. Then 104 μL of solutol was added and vortexed for 1 min. Then 415 μL of PEG300 was added and vortexed for 1 min. Then 1000 μL of water was added and vortexed for 1 min. Finally, 451 μL of water was added and vortexed for 1 min to get a clear solution.
The body weights were in the range from 28.81 to 31.25 g for males on the first dosing day. All animals received a single intravenous bolus administration of TEST COMPOUND from the tail vein.
Each blood collection (about 0.06 mL per time point) was performed from saphenous vein of each animal into pre-chilled commercial K2-EDTA tubes as anti-coagulant and placed on wet ice until centrifugation.
Plasma samples were then prepared by centrifuging the blood samples at approximately 4° C., 3200×g for 10 minutes. All plasma samples were then quickly frozen over dry ice and kept at −60° C. or lower until LC-MS/MS analysis.
Brain tissue was homogenized using homogenizing buffer (15 mM PBS (pH7.4): MeOH=2:1) at the ratio of 1:9 (1 g tissue with 9 mL buffer, the dilution ratio is 10). The tissue homogenate was kept at −60° C. or lower until LC-MS/MS analysis.
The concentrations of TEST COMPOUND in plasma and brain were determined by using an LC-MS/MS method.
The plasma and brain concentration of TEST COMPOUND in study animals was subjected to a non-compartmental pharmacokinetic analysis by using the Phoenix WinNonlin software program (version 6.3 or above, Pharsight). The linear/log trapezoidal rule was applied in obtaining the PK parameters.
Individual plasma and brain concentration values that were below the lower limit of quantitation (LLOQ) were excluded from the PK parameter calculation. The nominal dose levels and nominal sampling times were used in the calculation of all pharmacokinetic parameters.
Mouse Kp, uu=(% free in mouse brain*concentration in mouse brain)/(% free in mouse plasma*concentration in mouse plasma)
The dialysis apparatus was assembled according to the manufacturer's instruction. Each Cell was filled with 120 μL of spiked plasma sample and dialyzed against equal volume of dialysis buffer (PBS). The assay was performed in duplicate. The dialysis plates were sealed and incubated in an incubator at 37° C. with 5% CO2 and rotated at 100 rpm for 6 hours. At the end of incubation, the seals were removed and 50 μL of samples from both buffer and plasma chambers were transferred to a 96-well plate.
All calculations were carried out using Microsoft Excel. The concentrations of test compound and control compound in the buffer and plasma chambers were determined from peak area ratios (PAR) of analyte to internal standard. Protein binding (% unbound and % bound) and recovery (% recovery) of test and control compounds was calculated as follows:
• 1. Thawing of the frozen brain (stored at −80° C.) • Frozen brain tissue was thawed at room temperature in a bath. Only brain tissue was used that was thawed no more than once. • 2. Preparation of brain tissue homogenate • Brain tissue homogenate was prepared by diluting one quantity (g) of the whole brain tissue with three volumes (mL) of buffer (PBS, pH 7.4) and homogenizing the mixture using a tissue homogenizer. Brain tissue homogenate was frozen at −80° C. for later use/comparison. • 3. Preparation of working solutions • The working solutions of test compound and the control compound propranolol were prepared in dimethyl sulfoxide (DMSO) at the concentration of 200 μM. […]
On the technique in general: In equilibrium dialysis only unbound substance equilibrates across the membrane.

Series [2] concerns Caco-2 cells. Briefly: Caco-2 bidirectional permeability. The format is in vitro ADME. The settings on record: for Caco-2 A2B (10^−6 cm/s): A to B; for Caco-2 A2B (10^−6 cm/s) / Caco-2 B2A (10^−6 cm/s): HBSS pH 7.4, 2 hours; for Caco-2 B2A (10^−6 cm/s): B to A; for Caco-2 ER: Efflux Ratio=Papp (BA)/Papp (AB). The procedure, abridged: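 Caco-2 monolayers grown 21–28 days on PET inserts were run in duplicate in HBSS with 10 mM HEPES, pH 7.4. Compound was tested in both directions at […] for 2 h at 37 °C and quantified by LC-MS/MS. Papp, % recovery and efflux ratio (B-A/A-B) were calculated, with lucifer yellow checking monolayer integrity.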

The structures appear in SMILES notation. Bounds are passed on as bounds.

The compound `Cc1n[nH]c2c1N=C(c1c(F)cccc1F)Nc1c-2cc(N2CCN(CC(C)F)CC2)nc1C` (racemic) [Example 20, 8-(2,6-difluorophenyl)-13-[4-(2-fluoropropyl)piperazin-1-yl]-5,11-dimethyl-3,4,7,9,12-pentazatricyclo[8.4.0.02,6]tetradeca-1(10),2(6),4,7,11,13-hexaene] displayed a Kp uu in series [1] of 0.2 to 0.4. In addition, in series [2], the “Caco-2 A2B (10^−6 cm/s)” value is given as “H (H (High permeability)”: A2B (B2A)>5)”, the “Caco-2 B2A (10^−6 cm/s)” value is “H (H (High permeability)”: A2B (B2A)>5)” and the “Caco-2 ER” value is “N (N (Non-substrate)”: ER<2.5)”.
Regarding `Cc1n[nH]c2c1N=C(c1c(F)cccc1F)Nc1c-2cc(N2CCN(CCF)C[C@H]2C)nc1C` (single isomer, unassigned) [Example 18], in series [1], the Kp uu is greater than 0.4. Moreover, in series [2], the “Caco-2 A2B (10^−6 cm/s)” value is given as “H (H (High permeability)”: A2B (B2A)>5)”, the “Caco-2 B2A (10^−6 cm/s)” value was “H (H (High permeability)”: A2B (B2A)>5)” and the “Caco-2 ER” value is “N (N (Non-substrate)”: ER<2.5)”.
In the case of `Cc1n[nH]c2c1N=C(c1c(F)cccc1F)Nc1cnc(-c3cnn(C(F)F)c3)cc1-2` [Example 1, 9-(1-(difluoromethyl)-1H-pyrazol-4-yl)-5-(2,6-difluorophenyl)-3-methyl-1,6-dihydropyrazolo[4,3-d]pyrido[4,3-f][1,3]diazepine], the Kp uu in series [1] lay in the range of 0.2 to 0.4. Further, in series [2], the “Caco-2 A2B (10^−6 cm/s)” value is “H (H (High permeability)”: A2B (B2A)>5)”, the “Caco-2 B2A (10^−6 cm/s)” value was “H (H (High permeability)”: A2B (B2A)>5)” and the “Caco-2 ER” value is given as “N (N (Non-substrate)”: ER<2.5)”.
In series [1], `Cc1n[nH]c2c1N=C(c1c(F)cccc1F)Nc1c-2cc(N2CCN(CC(C)(C)F)CC2)nc1C` [Example 5, 5-(2,6-difluorophenyl)-9-(4-(2-fluoro-2-methylpropyl)piperazin-1-yl)-3,7-dimethyl-1,6-dihydropyrazolo[4,3-d]pyrido[4,3-f][1,3]diazepine] gave a Kp uu greater than 0.4. In series [2], the “Caco-2 A2B (10^−6 cm/s)” value is “H (H (High permeability)”: A2B (B2A)>5)”, the “Caco-2 B2A (10^−6 cm/s)” value is recorded as “H (H (High permeability)”: A2B (B2A)>5)” and the “Caco-2 ER” value was “N (N (Non-substrate)”: ER<2.5)”.
Turning to `Cc1n[nH]c2c1N=C(c1c(F)cccc1F)Nc1ccc(N3CCO[C@H](C)C3)cc1-2` [Example 7, (R)-4-(5-(2,6-difluorophenyl)-3-methyl-1,6-dihydrobenzo[d]pyrazolo[3,4-f][1,3]diazepin-9-yl)-2-methylmorpholine], the Kp uu in series [1] fell in the range of 0.2 to 0.4. Further, in series [2], the “Caco-2 A2B (10^−6 cm/s)” value is “H (H (High permeability)”: A2B (B2A)>5)”, the “Caco-2 B2A (10^−6 cm/s)” value is recorded as “H (H (High permeability)”: A2B (B2A)>5)” and the “Caco-2 ER” value was “N (N (Non-substrate)”: ER<2.5)”.
`Cc1n[nH]c2c1N=C(c1c(F)cccc1F)Nc1c-2cc(N2CCOCC2)nc1C` [Example 8, 4-[8-(2,6-difluorophenyl)-5,11-dimethyl-3,4,7,9,12-pentazatricyclo[8.4.0.02,6]tetradeca-1(10),2(6),4,7,11,13-hexaen-13-yl]morpholine] had a Kp uu in series [1] of 0.2 to 0.4. Further, in series [2], the “Caco-2 A2B (10^−6 cm/s)” value was “H (H (High permeability)”: A2B (B2A)>5)”, the “Caco-2 B2A (10^−6 cm/s)” value was “H (H (High permeability)”: A2B (B2A)>5)” and the “Caco-2 ER” value was “N (N (Non-substrate)”: ER<2.5)”.
Regarding `Cc1n[nH]c2c1N=C(c1c(F)cccc1F)Nc1c-2cc(N2CCN(CCF)CC2)nc1C` [Example 9, 8-(2,6-difluorophenyl)-13-[4-(2-fluoroethyl)piperazin-1-yl]-5,11-dimethyl-3,4,7,9,12-pentazatricyclo[8.4.0.02,6]tetradeca-1(10),2(6),4,7,11,13-hexaene], the Kp uu in series [1] was greater than 0.4. In series [2], the “Caco-2 A2B (10^−6 cm/s)” value is listed as “H (H (High permeability)”: A2B (B2A)>5)”, the “Caco-2 B2A (10^−6 cm/s)” value is “H (H (High permeability)”: A2B (B2A)>5)” and the “Caco-2 ER” value is given as “N (N (Non-substrate)”: ER<2.5)”.
The compound `Fc1cccc(F)c1C1=Nc2c(C(F)F)n[nH]c2-c2cc(N3CCOCC3)ncc2N1` [Example 10, 4-[5-(difluoromethyl)-8-(2,6-difluorophenyl)-3,4,7,9,12-pentazatricyclo[8.4.0.02,6]tetradeca-1(10),2(6),4,7,11,13-hexaen-13-yl]morpholine] showed a Kp uu in series [1] of less than 0.2. In series [2], the “Caco-2 A2B (10^−6 cm/s)” value was “H (H (High permeability)”: A2B (B2A)>5)”, the “Caco-2 B2A (10^−6 cm/s)” value is given as “H (H (High permeability)”: A2B (B2A)>5)” and the “Caco-2 ER” value is reported as “N (N (Non-substrate)”: ER<2.5)”.
In turn, `Cc1n[nH]c2c1N=C(c1c(F)cccc1F)Nc1cnc(-c3ccn(C(F)F)n3)cc1-2` [Example 12, 13-[1-(difluoromethyl)pyrazol-3-yl]-8-(2,6-difluorophenyl)-5-methyl-3,4,7,9,12-pentazatricyclo[8.4.0.02,6]tetradeca-1(10),2(6),4,7,11,13-hexaene] displayed a Kp uu in series [1] of less than 0.2. Also, in series [2], the “Caco-2 A2B (10^−6 cm/s)” value was “H (H (High permeability)”: A2B (B2A)>5)”, the “Caco-2 B2A (10^−6 cm/s)” value is given as “H (H (High permeability)”: A2B (B2A)>5)” and the “Caco-2 ER” value is on record as “N (N (Non-substrate)”: ER<2.5)”.
On to `Cc1n[nH]c2c1N=C(c1c(F)cccc1F)Nc1ccc(-c3cnn(C(F)F)c3)cc1-2` [Example 13, 9-[1-(difluoromethyl)pyrazol-4-yl]-5-(2,6-difluorophenyl)-3-methyl-1,6-dihydropyrazolo[4,3-d][1,3]benzodiazepine], for which the Kp uu in series [1] was greater than 0.4. For the same compound, in series [2], the “Caco-2 A2B (10^−6 cm/s)” value is reported as “H (H (High permeability)”: A2B (B2A)>5)”, the “Caco-2 B2A (10^−6 cm/s)” value is recorded as “H (H (High permeability)”: A2B (B2A)>5)” and the “Caco-2 ER” value was “N (N (Non-substrate)”: ER<2.5)”.
As to `Cc1n[nH]c2c1N=C(c1c(F)cccc1F)Nc1cnc(C#CC3(C)CCOCC3)cc1-2` [Example 17, 8-(2,6-difluorophenyl)-5-methyl-13-[2-(4-methyltetrahydropyran-4-yl)ethynyl]-3,4,7,9,12-pentazatricyclo[8.4.0.02,6]tetradeca-1(10),2(6),4,7,11,13-hexaene], the Kp uu in series [1] lay in the range of 0.2 to 0.4. Also, in series [2], the “Caco-2 A2B (10^−6 cm/s)” value is “M (M (Moderate permeability)”: 1≤A2B (B2A)≤5)”, the “Caco-2 B2A (10^−6 cm/s)” value is on record as “H (H (High permeability)”: A2B (B2A)>5)” and the “Caco-2 ER” value is given as “L (L (Likely)”: ER>2.5)”.
Turning to `Cc1n[nH]c2c1N=C(c1c(F)cccc1F)Nc1c-2cc(N2CCN(CC(F)F)CC2)nc1C` [Example 19, 13-[4-(2,2-difluoroethyl)piperazin-1-yl]-8-(2,6-difluorophenyl)-5,11-dimethyl-3,4,7,9,12-pentazatricyclo[8.4.0.02,6]tetradeca-1(10),2(6),4,7,11,13-hexaene], the Kp uu in series [1] was greater than 0.4. Moreover, in series [2], the “Caco-2 A2B (10^−6 cm/s)” value is given as “H (H (High permeability)”: A2B (B2A)>5)”, the “Caco-2 B2A (10^−6 cm/s)” value is recorded as “H (H (High permeability)”: A2B (B2A)>5)” and the “Caco-2 ER” value is given as “N (N (Non-substrate)”: ER<2.5)”.
`[2H]C1([2H])OC([2H])([2H])C([2H])([2H])N(c2ccc3c(c2)-c2[nH]nc(C)c2N=C(c2c(F)cccc2F)N3)C1([2H])[2H]` [Example 22, 2,2,3,3,5,5,6,6-octadeuterio-4-[5-(2,6-difluorophenyl)-3-methyl-1,6-dihydropyrazolo[4,3-d][1,3]benzodiazepin-9-yl]morpholine] returned a Kp uu in series [1] of less than 0.2. For the same compound, in series [2], the “Caco-2 A2B (10^−6 cm/s)” value is recorded as “H (H (High permeability)”: A2B (B2A)>5)”, the “Caco-2 B2A (10^−6 cm/s)” value is “H (H (High permeability)”: A2B (B2A)>5)” and the “Caco-2 ER” value is on record as “N (N (Non-substrate)”: ER<2.5)”.
